Key:
[1] = tested on: Marchantia polymorpha L. photomixotrophic cells; experiment: TTC high throughput screening of cell growth in microwell plate; type: cell-based; conditions: for growth inhibition activities (IC50) to Marchantia polymorpha L. photomixotrophic cells: TTC analysis; for effect of natural compounds on cell growth, in words: 1 ppm
Lemna paucicostata = Lemna paucicostata growth inhibition in 24 well plate; conditions: for inhibition at 31 ppm: Lemna aequinoctialis, 120 h, read-out: Lemna paucicostata (% activity)
[2] = tested on: Nicotiana tabacum cv. (BY4) photomixotrophic cells; experiment: TTC analysis of growth inhibition, tobacco photomixotrophic cells; type: cell-based
Description: As Nicotiana tabacum cv. (BY4) photomixotrophic cells, the cells developed as NaCl resistance cells by Cha et al. (Cha et al., Korean J Bot, -36: 113-120, 1993) were used. For the culture of the above cells, MS minimal medium where 0.7 mg/l of 2,4-D and 0.03 mg/l of kinetin were added was used. 2 g of Nicotiana tabacum cv. […] The cells were sub-cultured at intervals of 14 days. The investigation procedure of cell viability in a 96 microwell plate of the present invention is precisely explained as follows. 1) Treating 150 μl of TTC solution into each well wherein cells are being cultured. 2) Five hours after treating TTC, removing the solution in wells with a 8-channel multi-pipette. 3) Adding 150 μl of 95% ethanol to the remaining cells of each well, and then reacting thereof at 60° C. for 1 hour. 4) After reaction finished, transferring the reacting solution into a new 96 well plate. 5) Measuring the optical density of the well plate at 490 nm wave length with a high throughput screening (HTS) reader. The explained method of the present invention is called high throughput screening. […] Oryza sativa L. cv (Taebaegbyeo) heterotrophic cells used in this experiment were developed from premature embryo (Korean J Plant Tissue Culture, 18: 209-214, 1991).

[3] = tested on: Oryza sativa L. cv (Taebaegbyeo) heterotrophic cells; experiment: TTC analysis of growth inhibition, rice heterotrophic cells; type: cell-based; conditions: for growth inhibition activities (IC50) to Oryza sativa L. cv (Taebaegbyeo) heterotrophic cells: TTC analysis; for growth inhibiting activity to non-photomixotrophic (heterotrophic) cells, in words: 10 ppm
Description: Other culture conditions were same as those for Marchantia polymorpha L. photomixotrophic cell culture. The investigation procedure of cell viability in a 96 microwell plate of the present invention is precisely explained as follows. 1) Treating 150 μl of TTC solution into each well wherein cells are being cultured. 2) Five hours after treating TTC, removing the solution in wells with a 8-channel multi-pipette. 3) Adding 150 μl of 95% ethanol to the remaining cells of each well, and then reacting thereof at 60° C. for 1 hour. 4) After reaction finished, transferring the reacting solution into a new 96 well plate. 5) Measuring the optical density of the well plate at 490 nm wave length with a high throughput screening (HTS) reader. The explained method of the present invention is called high throughput screening. […] Oryza sativa L. cv (Taebaegbyeo) heterotrophic cells used in this experiment were developed from premature embryo (Korean J Plant Tissue Culture, 18: 209-214, 1991).

[4] = Marchantia polymorpha, natural compounds, final concentration 1 ppm, + inhibiting, − promoting

## O=C(O)c1cc(O)ccc1O [Gentistic acid]
[1]; natural compounds, final concentration 1 ppm, + inhibiting, − promoting
  Marchantia polymorpha L. photomixotrophic cells (% activity): 9%
Lemna paucicostata; final concentration 31 ppm, 5 days after treating
  Lemna paucicostata (% activity): 0%

## CC(C)Oc1cc(-n2nc(C(C)(C)C)oc2=O)c(Cl)cc1Cl [Oxadiazone]
[1]; 96 well plate
  growth inhibition activities (IC50) to Marchantia polymorpha L. photomixotrophic cells: 0.03 ppm
[2]
  growth inhibition activities (IC50) to Nicotiana tabacum cv. (BY4) photomixotrophic cells: 0.39 ppm
[3]
  growth inhibition activities (IC50) to Oryza sativa L. cv (Taebaegbyeo) heterotrophic cells: 6.88 ppm

## O=C(O)c1cc(O)c(O)c(O)c1 [Gallic acid]
[1]; [4]
  inhibition at 1 ppm: 8%
Lemna paucicostata
  inhibition at 31 ppm: 0%

## O=C(O)/C=C/c1ccccc1O [o-Coumaric acid]
[1]; [4]
  inhibition at 1 ppm: 32%
Lemna paucicostata
  inhibition at 31 ppm: 30%

## O=C(O)/C=C/c1ccc(O)c(O)c1 [Caffeic acid]
[1]; [4]
  inhibition at 1 ppm: 21%
Lemna paucicostata
  inhibition at 31 ppm: 30%

## COc1cc(C(=O)O)ccc1O [Vanillic acid]
[1]; [4]
  inhibition at 1 ppm: 10%
Lemna paucicostata
  inhibition at 31 ppm: 10%

## CCOC(=O)c1ccc(O)c(O)c1 [Protocatechuic acid ethyl ester]
[1]; [4]
  inhibition at 1 ppm: 22%
Lemna paucicostata
  inhibition at 31 ppm: 70%

## Oc1ccc(O)cc1 [Hydroquinone]
[1]; [4]
  inhibition at 1 ppm: 15%
Lemna paucicostata
  inhibition at 31 ppm: 0%

## CC(C)C1(C)N=C(c2ncccc2C(=O)O)NC1=O (stereo not shown) [Amazapyr]
[1]; 96 well plate
  growth inhibition activities (IC50) to Marchantia polymorpha L. photomixotrophic cells: 0.35 ppm
[2]
  growth inhibition activities (IC50) to Nicotiana tabacum cv. (BY4) photomixotrophic cells: 0.018 ppm
[3]
  growth inhibition activities (IC50) to Oryza sativa L. cv (Taebaegbyeo) heterotrophic cells: 0.269 ppm

## CCC(=O)Nc1ccc(Cl)c(Cl)c1 [Propanil]
[1]; 96 well plate
  growth inhibition activities (IC50) to Marchantia polymorpha L. photomixotrophic cells: 0.037 ppm
[2]
  growth inhibition activities (IC50) to Nicotiana tabacum cv. (BY4) photomixotrophic cells: 5.83 ppm
[3]
  growth inhibition activities (IC50) to Oryza sativa L. cv (Taebaegbyeo) heterotrophic cells: 8.49 ppm

## COc1cc(C(=O)O)cc(OC)c1O [Syringic acid]
[1]; [4]
  inhibition at 1 ppm: 16%
Lemna paucicostata
  inhibition at 31 ppm: 0%

## O=c1ccc2ccccc2o1 [Coumarin]
[1]; [4]
  inhibition at 1 ppm: 33%
Lemna paucicostata
  inhibition at 31 ppm: 80%

## CSC(=O)c1c(C(F)F)nc(C(F)(F)F)c(C(=O)SC)c1CC(C)C [Dithiopyr]
[1]; 96 well plate
  growth inhibition activities (IC50) to Marchantia polymorpha L. photomixotrophic cells: 0.048 ppm
[2]
  growth inhibition activities (IC50) to Nicotiana tabacum cv. (BY4) photomixotrophic cells: 0.141 ppm
[3]
  growth inhibition activities (IC50) to Oryza sativa L. cv (Taebaegbyeo) heterotrophic cells: 0.613 ppm

## COc1cc(OC)nc(Oc2cccc(Oc3nc(OC)cc(OC)n3)c2C(=O)ON=C(c2ccccc2)c2ccccc2)n1 [Pyribenzoxim]
[1]; 96 well plate
  growth inhibition activities (IC50) to Marchantia polymorpha L. photomixotrophic cells: 0.0092 ppm
[2]
  growth inhibition activities (IC50) to Nicotiana tabacum cv. (BY4) photomixotrophic cells: 0.0026 ppm
[3]
  growth inhibition activities (IC50) to Oryza sativa L. cv (Taebaegbyeo) heterotrophic cells: 7.83 ppm

## COc1cc(/C=C/C(=O)O)ccc1O [Ferulic acid]
[1]
  effect of natural compounds on cell growth, in words: growth promoting activity
[1]; [4]
  inhibition at 1 ppm: -35%
Lemna paucicostata
  inhibition at 31 ppm: 20%

## O=C(O)/C=C/c1ccc(O)cc1 [p-Coumaric acid]
[1]; [4]
  inhibition at 1 ppm: 17%
Lemna paucicostata
  inhibition at 31 ppm: 30%

## CON(C)C(=O)Nc1ccc(Cl)c(Cl)c1 [Linurone]
[1]; 96 well plate
  growth inhibition activities (IC50) to Marchantia polymorpha L. photomixotrophic cells: 0.244 ppm
[2]
  growth inhibition activities (IC50) to Nicotiana tabacum cv. (BY4) photomixotrophic cells: >10 ppm
[3]
  growth inhibition activities (IC50) to Oryza sativa L. cv (Taebaegbyeo) heterotrophic cells: 7.07 ppm

## O=c1ccc2ccc(O)cc2o1 [Umbelliferone]
[1]; [4]
  inhibition at 1 ppm: 6%
Lemna paucicostata
  inhibition at 31 ppm: 40%

## O=C(Nc1ccc(F)cc1F)c1cccnc1Oc1cccc(C(F)(F)F)c1 [Diflufenican]
[1]; 96 well plate
  growth inhibition activities (IC50) to Marchantia polymorpha L. photomixotrophic cells: 0.031 ppm
[2]
  growth inhibition activities (IC50) to Nicotiana tabacum cv. (BY4) photomixotrophic cells: 4.67 ppm
[3]
  growth inhibiting activity to non-photomixotrophic (heterotrophic) cells, in words: low growth inhibiting activity or almost none
  growth inhibition activities (IC50) to Oryza sativa L. cv (Taebaegbyeo) heterotrophic cells: >10 ppm

## CCOC(=O)[C@@H](C)Oc1ccc(Oc2nc3ccc(Cl)cc3o2)cc1 [Phenoxapro-P-ethyl]
[1]; 96 well plate
  growth inhibition activities (IC50) to Marchantia polymorpha L. photomixotrophic cells: 0.70 ppm
[2]
  growth inhibition activities (IC50) to Nicotiana tabacum cv. (BY4) photomixotrophic cells: 4.58 ppm
[3]
  growth inhibition activities (IC50) to Oryza sativa L. cv (Taebaegbyeo) heterotrophic cells: 6.47 ppm

## CCNc1nc(Cl)nc(NC(C)C)n1 [Atrazine]
[1]; 12 well plate, different concentrations, 1 and 5 hours after TTC
  intracellular formazan content: decreased dose-dependently
[1]; 96 well plate, TTC 5 hours
  content that can inhibit cell growth upto about 50%: 0.18 ppm
[1]; Marchantia polymorpha, 96 well plate, TTC 5 hours, read-out: content that can inhibit cell growth upto about 50%
  IC50: 680 nM
[1]; 96 well plate
  growth inhibition activities (IC50) to Marchantia polymorpha L. photomixotrophic cells: 0.21 ppm
[2]
  growth inhibition activities (IC50) to Nicotiana tabacum cv. (BY4) photomixotrophic cells: 0.18 ppm
[3]
  growth inhibiting activity to non-photomixotrophic (heterotrophic) cells, in words: low growth inhibiting activity or almost none
  growth inhibition activities (IC50) to Oryza sativa L. cv (Taebaegbyeo) heterotrophic cells: >10 ppm

## COc1cc(Oc2ccc(Cl)cc2Cl)ccc1[N+](=O)[O-] [Chloromethoxynil]
[1]; 96 well plate
  growth inhibition activities (IC50) to Marchantia polymorpha L. photomixotrophic cells: 0.076 ppm
[2]
  growth inhibition activities (IC50) to Nicotiana tabacum cv. (BY4) photomixotrophic cells: 0.193 ppm
[3]
  growth inhibiting activity to non-photomixotrophic (heterotrophic) cells, in words: low growth inhibiting activity or almost none
  growth inhibition activities (IC50) to Oryza sativa L. cv (Taebaegbyeo) heterotrophic cells: >10 ppm

## COc1cc2ccc(=O)oc2cc1O [Scopoletin]
[1]; [4]
  inhibition at 1 ppm: 16%
Lemna paucicostata
  inhibition at 31 ppm: 0%

## COCC(=O)OC(c1ncccc1S(=O)(=O)NC(=O)Nc1nc(OC)cc(OC)n1)C(C)F (stereo not shown) [LGC-42153]
[1]; 96 well plate
  growth inhibition activities (IC50) to Marchantia polymorpha L. photomixotrophic cells: 0.0011 ppm
[2]
  growth inhibition activities (IC50) to Nicotiana tabacum cv. (BY4) photomixotrophic cells: 0.0022 ppm
[3]
  growth inhibition activities (IC50) to Oryza sativa L. cv (Taebaegbyeo) heterotrophic cells: 1.793 ppm

## O=C(O)c1ccccc1 [Benzoic acid]
Lemna paucicostata
  inhibition at 31 ppm: 10%

## CC(Oc1ccc2ccccc2c1)C(=O)Nc1ccccc1 (stereo not shown) [Naproanilide]
[1]; 96 well plate
  growth inhibition activities (IC50) to Marchantia polymorpha L. photomixotrophic cells: 0.054 ppm
[2]
  growth inhibition activities (IC50) to Nicotiana tabacum cv. (BY4) photomixotrophic cells: 0.0019 ppm
[3]
  growth inhibition activities (IC50) to Oryza sativa L. cv (Taebaegbyeo) heterotrophic cells: 6.69 ppm

## O=c1oc2ccccc2c(O)c1Cc1c(O)c2ccccc2oc1=O [Dicumarol]
[1]
  effect of natural compounds on cell growth, in words: growth promoting activity
[1]; [4]
  inhibition at 1 ppm: -31%
Lemna paucicostata
  inhibition at 31 ppm: 30%

## CCOC(=O)c1cnn(C)c1S(=O)(=O)NC(=O)Nc1nc(OC)cc(OC)n1 [Prazolsulfuron-ethyl]
[1]; 96 well plate
  growth inhibition activities (IC50) to Marchantia polymorpha L. photomixotrophic cells: 0.0012 ppm
[2]
  growth inhibition activities (IC50) to Nicotiana tabacum cv. (BY4) photomixotrophic cells: 0.001 ppm
[3]
  growth inhibition activities (IC50) to Oryza sativa L. cv (Taebaegbyeo) heterotrophic cells: 0.066 ppm

## O=C1COc2ccccc21 [3-Coumaranone]
[1]
  effect of natural compounds on cell growth, in words: growth promoting activity
[1]; [4]
  inhibition at 1 ppm: -18%
Lemna paucicostata
  inhibition at 31 ppm: 0%

From patent US20050176584A1, “Mehtod for high throughput screening of plant growth regulator” (Korea Research Institute of Bioscience and Biotechnology, priority 2002, published 2005)
